This passage reports IC50 results from BindingDB's records for doi:10.1021/jm000145g (University of Oxford, 2001).

Structures can show the parent of a compound that is named as a salt. Where only a bound is given, the exact number is not on record here.

The target of the experiment is Prostate-specific antigen (Homo sapiens) (UniProt P07288). Briefly: Inhibition of Prostate specific antigen PSA (Serine Protease).
Sequence of Prostate-specific antigen (Homo sapiens) (P07288 whole entry, looked up): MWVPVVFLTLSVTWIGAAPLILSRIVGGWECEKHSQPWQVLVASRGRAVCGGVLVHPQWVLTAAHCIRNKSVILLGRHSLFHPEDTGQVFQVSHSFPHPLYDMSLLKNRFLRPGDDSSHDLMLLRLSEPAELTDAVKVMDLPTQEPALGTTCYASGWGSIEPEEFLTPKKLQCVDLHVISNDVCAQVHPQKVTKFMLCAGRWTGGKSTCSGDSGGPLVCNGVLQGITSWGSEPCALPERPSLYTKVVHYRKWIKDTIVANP
As for `O=C(OC[C@@H]1[C@H](Cc2ccccc2)C(=O)N1S(=O)(=O)c1ccccc1)c1ccccc1` [Benzoic acid 1-benzenesulfonyl-3-benzyl-4-oxo-azetidin-2-ylmethyl ester], 3.08 µM corresponded to half-maximal inhibition (IC50).
Then `NCc1ccc(COC(=O)[C@@H]2[C@H](Cc3ccccc3)C(=O)N2C(=O)Cc2cccc(C(=O)OCc3ccccc3)c2)cc1` [3-Benzyl-1-[2-(3-benzyloxycarbonyl-phenyl)-acetyl]-4-oxo-azetidine-2-carboxylic acid 4-aminomethyl-benzyl ester; TFA], with 1.34 µM.
For `O=C(OC[C@@H]1[C@H](Cc2ccccc2)C(=O)N1C(=O)c1ccccc1)c1ccccc1` [Benzoic acid 1-benzoyl-3-benzyl-4-oxo-azetidin-2-ylmethyl ester] the value was 1.59 µM.
For `Cc1ccc(S(=O)(=O)N2C(=O)[C@@H](Cc3ccccc3)[C@H]2C(=O)OCc2ccccc2)cc1` [3-Benzyl-4-oxo-1-(toluene-4-sulfonyl)-azetidine-2-carboxylic acid benzyl ester] the value was more than 30 µM; for `O=C(O)c1ccc(COC(=O)[C@@H]2[C@H](Cc3ccccc3)C(=O)N2C(=O)Cc2cccc(C(=O)O)c2)cc1` [3-Benzyl-1-[2-(3-carboxy-phenyl)-acetyl]-4-oxo-azetidine-2-carboxylic acid 4-carboxy-benzyl ester], more than 30 µM.
`Cc1ccc(S(=O)(=O)N2C(=O)[C@@H](Cc3ccccc3)[C@H]2COC(=O)c2ccccc2)cc1` [Benzoic acid 3-benzyl-4-oxo-1-(toluene-4-sulfonyl)-azetidin-2-ylmethyl ester] had an IC50 of 4.79 µM.
`CCS(=O)(=O)N1C(=O)[C@@H](Cc2ccccc2)[C@H]1COC(=O)c1ccccc1` [Benzoic acid 3-benzyl-1-ethanesulfonyl-4-oxo-azetidin-2-ylmethyl ester]: the IC50 is 2.19 µM.
For `O=C(O)c1ccc(C(=O)OC[C@@H]2[C@H](Cc3ccccc3)C(=O)N2C(=O)c2ccccc2)cc1` [Terephthalic acid mono-(1-benzoyl-3-benzyl-4-oxo-azetidin-2-ylmethyl) ester] the value was more than 100 µM; for `O=C(O)c1ccc(COC(=O)[C@@H]2[C@H](Cc3ccccc3)C(=O)N2C(=O)c2ccccc2)cc1` [1-Benzoyl-3-benzyl-4-oxo-azetidine-2-carboxylic acid 4-carboxy-benzyl ester], 24.3 µM; for `O=C(OC[C@@H]1[C@H](Cc2ccccc2)C(=O)N1S(=O)(=O)c1ccc([N+](=O)[O-])cc1)c1ccccc1` [Benzoic acid 3-benzyl-1-(4-nitro-benzenesulfonyl)-4-oxo-azetidin-2-ylmethyl ester], 11.5 µM.
Turning to `O=C(OCc1ccccc1)[C@@H]1[C@H](Cc2ccc(O)cc2)C(=O)N1C(=O)c1ccccc1` [1-Benzoyl-3-(4-hydroxy-benzyl)-4-oxo-azetidine-2-carboxylic acid benzyl ester], the midpoint of inhibition, the IC50, lay at 9.14 µM.
For `O=C(OCc1ccccc1)c1cccc(CC(=O)N2C(=O)[C@@H](Cc3ccccc3)[C@H]2COC(=O)c2ccccc2)c1` [3-[2-(2-Benzoyloxymethyl-3-benzyl-4-oxo-azetidin-1-yl)-2-oxo-ethyl]-benzoic acid benzyl ester] the value was more than 100 µM.
